# Test results published in patent US6538151B1, “Modifications of 2-amino-4-(4-fluorobenzylamino)-1-ethoxycarbonylaminobenzene, and processes for their preparation” (Asta Medica Aktiengesellschaft, priority 1997, dated 2003).
# What was measured:
# Format in all cases: physicochemical
# [1] = Stability of the crystal structure (lattice) on heating and storage
# Protocol: The crystal structure is stable up to approx. 80° C.
# [2] = Lattice stability on contact with solvents; conditions: contact with solvents such as water, ethanol, acetone or toluene
# [3] = Solubility behaviour of the crystals; conditions: finely granular crystals
# Excerpt: The modifications B and C can be employed for specific pharmaceutical forms such as capsules and dry ampoules.
SMILES,lattice changes after storage ([1]; relatively long storage at temperatures up to 60° C. and relative atmospheric humidities up to 70%),"crystal structure is stable up to (temperature) ([1]; solid state, temperature limit of lattice stability)",lattice change on contact with solvents [2],speed of dissolution of crystals [3]
"CCOC(=O)Nc1ccc(NCc2ccc(F)cc2)cc1N [modification A, 2-amino-4-(4-fluorobenzylamino)-1-ethoxycarbonylaminobenzene]",no lattice changes are observed,approx. 80 °C,no lattice change,–
"CCOC(=O)Nc1ccc(NCc2ccc(F)cc2)cc1N [modification C, 2-amino-4-(4-fluorobenzylamino)-1-ethoxycarbonylaminobenzene]",–,–,–,particularly rapidly soluble
